Key:
[1] = system: primary human pan T-cells; test: Human IL-2 Assay for GCN2 Inhibition (IL-2 secretion from T cells in low amino acid condition); assay type: cell-based; conditions: IL-2 secretion from human T cells stimulated with anti-CD3/CD28 in low amino acid condition, ELISA; for IL2/T-cell EC50: 96 hours; for EC50: Homo sapiens, T-cell, 96 h, read-out: IL2/T-cell EC50
Source text: Tumor microenvironment is profoundly immuno-suppressive. This may be attributed to the depletion of amino acids (like arginine and tryptophan) which triggers the activation of GCN2 in immune cells, including T cell and myeloid cells. In T cells, activation of GCN2 leads to reduce effector functions of CD8 T cells and induction and/or maintenance of immuno-suppressive T-regs. Inhibition of that immuno-suppressive response by GCN2 inhibitors enables an anti-cancer immune response by activating effector T-cells. Herein we describe an in-vitro system we established using human T-cells stimulated in low amino acid condition in order to engage the GCN2 biology. The method described involves the modulation of IL-2 levels secreted by human T cells in responses to the GCN2 inhibitors disclosed herein.
Amino acid-free RPMI was reconstituted with all but one of the amino acids found in standard RMPI (e.g. Arginine, Tryptophan), 10% charcoal-stripped fetal bovine serum, 100 Units/mL penicillin and 0.1 mg/mL streptomycin. Primary human pan T-cells were isolated using Pan T Cell Isolation Kit, human (MACS Miltenyi biotech Cat # Order no. 130-096-535) from apheresis cones and 5×104 pan T-cells per well. The purified T cells are seeded in Nunc™ 96-Well Polystyrene Round Bottom Microwell Plates (the cells are rested in No TRP media in a 15 ml falcon tube in the incubator for 30-45 minutes while titrations for tryptophan and the GCN2 inhibitor compound are made) A plate matrix was developed to titrate both a GCN2 inhibitor and the amino acid of interest ranging from “No Amino Acid” condition, up to the concentration found in the regular RPMI media (20 μM for TRP and 950 μM for Arginine). The cells were incubated for 30 min at 37° C. with the GCN2 inhibitor and then stimulated with 5×104 anti-CD3/CD28 Dynabeads® per well. After 96 hours of incubation the IL-2 level in the supernatant were measured using ELISA (R&D systems Cat # DY202 (Human IL-2 DuoSet ELISA). Data were plotted in GraphPad Prism software and EC50 is calculated.

[2] = molecular target: intracellular GCN2 (phosphorylation of the GCN2 substrate eIF2α) (Homo sapiens (Human), UniProt Q9P2K8); test: GCN2 Cellular Inhibition Assay (AlphaScreen SureFire P-eIF2α Ser51, borrelidin-treated U2OS cells); assay type: cell-based; conditions: 10 μM borrelidin, 1 h, phosphorylated eIF2α Ser51, read-out: GCN2 Biomarker (IC50)
Sequence of intracellular GCN2 (phosphorylation of the GCN2 substrate eIF2α) (Q9P2K8 whole entry): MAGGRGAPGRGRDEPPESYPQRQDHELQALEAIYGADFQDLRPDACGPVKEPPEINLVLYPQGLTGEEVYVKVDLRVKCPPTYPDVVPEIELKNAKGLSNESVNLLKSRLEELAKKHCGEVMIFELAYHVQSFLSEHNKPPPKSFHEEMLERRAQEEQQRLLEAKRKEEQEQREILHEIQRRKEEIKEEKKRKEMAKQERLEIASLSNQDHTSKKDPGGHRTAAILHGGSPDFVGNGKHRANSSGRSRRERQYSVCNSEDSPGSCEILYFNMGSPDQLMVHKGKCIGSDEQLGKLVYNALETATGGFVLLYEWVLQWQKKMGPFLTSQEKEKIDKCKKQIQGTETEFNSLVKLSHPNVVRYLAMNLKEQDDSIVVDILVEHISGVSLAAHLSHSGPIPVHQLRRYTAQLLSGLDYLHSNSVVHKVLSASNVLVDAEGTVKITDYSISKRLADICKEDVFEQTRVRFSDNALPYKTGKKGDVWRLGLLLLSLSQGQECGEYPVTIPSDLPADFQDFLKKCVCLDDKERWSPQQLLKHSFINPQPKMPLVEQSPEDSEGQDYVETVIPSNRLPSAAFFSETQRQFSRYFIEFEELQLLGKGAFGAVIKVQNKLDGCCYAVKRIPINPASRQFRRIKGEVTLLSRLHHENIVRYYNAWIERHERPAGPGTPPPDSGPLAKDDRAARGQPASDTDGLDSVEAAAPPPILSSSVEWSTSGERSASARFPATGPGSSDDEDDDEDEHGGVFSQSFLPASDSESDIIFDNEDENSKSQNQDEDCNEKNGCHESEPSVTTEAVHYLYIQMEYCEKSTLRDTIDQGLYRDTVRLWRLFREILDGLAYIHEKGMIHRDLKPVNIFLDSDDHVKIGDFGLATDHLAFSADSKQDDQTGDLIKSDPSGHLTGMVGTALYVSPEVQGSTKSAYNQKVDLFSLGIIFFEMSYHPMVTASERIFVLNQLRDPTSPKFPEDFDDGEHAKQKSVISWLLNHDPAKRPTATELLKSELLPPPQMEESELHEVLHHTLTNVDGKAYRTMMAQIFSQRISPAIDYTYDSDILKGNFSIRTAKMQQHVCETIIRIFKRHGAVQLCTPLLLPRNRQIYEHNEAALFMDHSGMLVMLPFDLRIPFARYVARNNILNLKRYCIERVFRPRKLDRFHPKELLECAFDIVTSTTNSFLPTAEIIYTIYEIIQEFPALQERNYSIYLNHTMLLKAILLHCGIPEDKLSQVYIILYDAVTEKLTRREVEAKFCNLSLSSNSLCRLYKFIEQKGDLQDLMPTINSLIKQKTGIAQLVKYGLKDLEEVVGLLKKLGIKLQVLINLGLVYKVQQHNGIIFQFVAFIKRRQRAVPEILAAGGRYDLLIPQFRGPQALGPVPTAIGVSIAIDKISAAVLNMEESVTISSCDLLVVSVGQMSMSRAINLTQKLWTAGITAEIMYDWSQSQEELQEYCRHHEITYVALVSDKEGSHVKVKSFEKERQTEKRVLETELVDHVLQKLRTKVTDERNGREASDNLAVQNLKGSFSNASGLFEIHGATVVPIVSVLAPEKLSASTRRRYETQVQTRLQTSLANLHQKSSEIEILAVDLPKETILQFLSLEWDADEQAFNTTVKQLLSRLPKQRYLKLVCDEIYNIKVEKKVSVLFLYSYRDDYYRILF
Outline: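 Phospho-eIF2α (Ser51) measured by AlphaScreen SureFire in lysates of U2OS cells stimulated 1 h at 37 °C with 10 μM borrelidin alongside compound, 4-fold dilutions from 40 μM. Inhibition expressed as percent relative to borrelidin-alone controls.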

GCN2 kinase = GCN2 kinase (Homo sapiens (Human), UniProt Q9P2K8); test: GCN2 Enzyme Inhibition Assay (Transcreener ADP2 fluorescence polarization); assay type: biochemical; conditions: 280 μM ATP, 200 μM (RS)7 peptide, 4 nM GCN2, 25° C.; for Ki: Ki(app)
Sequence of GCN2 kinase (Q9P2K8 whole entry): as above
Outline: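 At 25 °C, GCN2 kinase (typical final concentration 4 nM) and (RS)7 peptide in Tris-HCl pH 7.5 buffer with MgCl2, NaCl and DTT were preincubated with compound for 10 min, then ATP was added for a 1 h reaction. ADP was read by FP with antibody/Alexa633 tracer. Non-linear tight-binding analysis gave IC50 and apparent Ki.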

Compound | IL2/T-cell EC50 [1] | IC50 [2] [nM] | IC50 (GCN2 kinase) [nM] | EC50 [1] [nM] | Ki (GCN2 kinase) [nM]
Cc1n[nH]cc1[C@@H]1CN(c2ccnc(-c3cnc4cc(Cl)c(C(F)(F)F)cn34)n2)C[C@H](C)O1 [I-359, (2S,6R)-4-(2-(7-chloro-6-(trifluoromethyl)imidazo[1,2-a]pyridin-3-yl)pyrimidin-4-yl)-2-methyl-6-(3-methyl-1H-pyrazol-4-yl)morpholine] |  | < 500 | < 10 | 100 to 500 | 
FC(F)(F)c1ccc2ncc(-c3nccc(N4CCN(C5CC6(COC6)C5)[C@H](c5cn[nH]c5)C4)n3)n2c1 [I-504, (R)-3-(4-(3-(1H-pyrazol-4-yl)-4-(2-oxaspiro[3.3]heptan-6-yl)piperazin-1-yl)pyrimidin-2-yl)-6-(trifluoromethyl)imidazo[1,2-a]pyridine] |  | < 500 | < 10 | 100 to 500 | 
C[C@H]1C[C@@H](c2cn[nH]c2)CN(c2nccc(-c3cnc4ccc(C5CC5)cn34)n2)C1 [I-250, 6-Cyclopropyl-3-{2-[(3 S,5S)-3-methyl-5-(1H-pyrazol-4-yl)-piperidin-1-yl]-pyrimidin-4-yl}-imidazo[1,2-a]pyridine] | − (“−” for not active) | < 500 | 10 to 100 |  | 
CC1CCC(C(N)=O)CN1c1ccnc(-c2cnc3ccc(C(F)(F)F)cn23)n1 (centres unmarked) [I-200, 6-methyl-1-(2-(6-(trifluoromethyl)imidazo[1,2-a]pyridin-3-yl)pyrimidin-4-yl)piperidine-3-carboxamide] |  | < 500 | < 10 | 100 to 500 | 
C[C@@H]1CN(c2nccc(-c3cnc4ccc(C(F)(F)F)cn34)n2)C[C@H](c2cn[nH]c2)O1 [I-127, 3-{2-[(2R,6S)-2-Methyl-6-(1H-pyrazol-4-yl)-morpholin-4-yl]-pyrimidin-4-yl}-6-trifluoromethyl-imidazo[1,2-a]pyridine] |  | < 500 | < 10 | < 100 | 
Cc1[nH]ncc1[C@@H]1C[C@H](O)CN(c2ccnc(-c3cnc4ccc(C(F)(F)F)cn34)n2)C1 [I-314, (3 S,5S)-5-(3-Methyl-1H-pyrazol-4-yl)-1-[2-(6-trifluoromethyl-imidazo[1,2-a]pyridin-3-yl)-pyrimidin-4-yl]-piperidin-3-ol] | − (“−” for not active) | < 500 | < 10 |  | 
C[C@H]1CN(c2nccc(-c3cnc4ccc(Cl)cn34)n2)C[C@@H](c2cn[nH]c2)O1 [I-247, 6-Chloro-3-{2-[(2S,6R)-2-methyl-6-(1H-pyrazol-4-yl)-morpholin-4-yl]-pyrimidin-4-yl}-imidazo[1,2-a]pyridine] |  | < 500 | < 10 | < 100 | 
C[C@@H]1CN(c2ccnc(-c3cnc4ccc(OC(F)(F)F)cn34)n2)C[C@H](c2cn[nH]c2)O1 [I-293, (2R,6 S)-2-methyl-6-(1H-pyrazol-4-yl)-4-(2-(6-(trifluoromethoxy)imidazo[1,2-a]pyridin-3-yl)pyrimidin-4-yl)morpholine] |  | < 500 | < 10 | < 100 | 
FC(F)(F)c1ccc2ncc(-c3nccc(N4CCN(CC5CCOCC5)C(c5cn[nH]c5)C4)n3)n2c1 (centres unmarked) [I-354, 3-(4-(3-(1H-pyrazol-4-yl)-4-((tetrahydro-2H-pyran-4-yl)methyl)piperazin-1-yl)pyrimidin-2-yl)-6-(trifluoromethyl)imidazo[1,2-a]pyridine] |  | < 500 | < 10 | 100 to 500 | 

Further lines, results first:

IL2/T-cell EC50 [1] | IC50 [2] [nM] | IC50 (GCN2 kinase) [nM] | EC50 [1] [nM] | Ki (GCN2 kinase) [nM] | Compound
− (“−” for not active) | < 500 | 10 to 100 |  |  | Cc1cnc(N2C[C@H](C)C[C@H](c3cn[nH]c3)C2)nc1-c1cnc2ccc(Cl)cn12 [I-185, 6-chloro-3-(5-methyl-2-((3R,5R)-3-methyl-5-(1H-pyrazol-4-yl)piperidin-1-yl)pyrimidin-4-yl)imidazo[1,2-a]pyridine]
 | < 500 | < 10 | < 100 | < 10 | NC(=O)[C@H]1CCCN(c2ccnc(-c3cnc4ccc(C(F)(F)F)cn34)n2)C1 [I-154, (S)-1-[2-(6-Trifluoromethyl-imidazo[1,2-a]pyridin-3-yl)-pyrimidin-4-yl]-piperidine-3-carboxylic acid amide]
 | < 500 | < 10 | 100 to 500 |  | Cc1[nH]ncc1[C@H]1C[C@@H](O)CN(c2ccnc(-c3cnc4ccc(C(F)(F)F)cn34)n2)C1 [I-315, (3R,5R)-5-(3-Methyl-1H-pyrazol-4-yl)-1-[2-(6-trifluoromethyl-imidazo[1,2-a]pyridin-3-yl)-pyrimidin-4-yl]-piperidin-3-ol]
 | < 500 | < 10 | < 100 |  | C[C@H]1CN(c2ccnc(-c3cnc4ccc(Cl)cn34)n2)C[C@@H](c2cn[nH]c2F)O1 [I-176, (2R,6S)-4-(2-(6-chloroimidazo[1,2-a]pyridin-3-yl)pyrimidin-4-yl)-2-(5-fluoro-1H-pyrazol-4-yl)-6-methylmorpholine]
 | < 500 | < 10 | < 100 |  | C[C@H]1[C@@H](c2cn[nH]c2)N(CC2(C)COC2)CCN1c1ccnc(-c2cnc3ccc(C(F)(F)F)cn23)n1 [I-481, 3-(4-((2 S,3R)-2-methyl-4-((3-methyloxetan-3-yl)methyl)-3-(1H-pyrazol-4-yl)piperazin-1-yl)pyrimidin-2-yl)-6-(trifluoromethyl)imidazo[1,2-a]pyridine]
 | < 500 |  | 100 to 500 | < 10 | NC(=O)[C@H]1CCCN(c2ccnc(-c3cnc4ccc(Cl)cn34)n2)C1 [I-102, (S)-1-(2-(6-chloroimidazo[1,2-a]pyridin-3-yl)pyrimidin-4-yl)piperidine-3-carboxamide]
 | < 500 | 10 to 100 | > 500 |  | C[C@H]1CN(c2nccc(-c3cnc4ccc(C(F)(F)F)cn34)n2)C[C@H](c2cn[nH]c2)O1 [I-134, (2S,6S)-2-methyl-6-(1H-pyrazol-4-yl)-4-(4-(6-(trifluoromethyl)imidazo[1,2-a]pyridin-3-yl)pyrimidin-2-yl)morpholine]
 | < 500 | < 10 | 100 to 500 |  | C[C@@H]1CN(c2nccc(-c3cnc4ccc(C(F)(F)F)cn34)n2)C[C@@H](c2cn[nH]c2)O1 [I-135, (2R,6R)-2-methyl-6-(1H-pyrazol-4-yl)-4-(4-(6-(trifluoromethyl)imidazo[1,2-a]pyridin-3-yl)pyrimidin-2-yl)morpholine]
− (“−” for not active) | < 500 | 10 to 100 | > 500 |  | C[C@H]1C[C@@H](N=S(C)(C)=O)CN(c2ccnc(-c3cnc4ccc(C(F)(F)F)cn34)n2)C1 (stereo in doubt) [I-123, Dimethyl(((3R,5S)-5-methyl-1-(2-(6-(trifluoromethyl)imidazo[1,2-a]pyridin-3-yl)pyrimidin-4-yl)piperidin-3-yl)imino)-λ6-sulfanone]
 | < 500 | < 10 | > 500 |  | C[C@@H]1C[C@H](N=S(C)(C)=O)CN(c2nccc(-c3cnc4ccc(C(F)F)cn34)n2)C1 [I-499, (((3 S,5R)-1-(4-(6-(difluoromethyl)imidazo[1,2-a]pyridin-3-yl)pyrimidin-2-yl)-5-methylpiperidin-3-yl)imino)dimethyl-λ6-sulfanone]
− (“−” for not active) | < 500 | 10 to 100 |  |  | C[C@@H]1C[C@H](N=S(C)(C)=O)CN(c2ccnc(-c3cnc4cc(F)c(Cl)cn34)n2)C1 [I-191, (((3 S, 5R)-1-(2-(6-chloro-7-fluoroimidazo[1,2-a]pyridin-3-yl)pyrimidin-4-yl)-5-methylpiperidin-3-yl)imino)dimethyl-λ6-sulfanone]
 | < 500 | < 10 | 100 to 500 |  | Cc1[nH]ncc1[C@@H]1CN(c2nccc(-c3cnc4ccc(Cl)cn34)n2)C[C@H](C)O1 [I-179, (2S,6R)-4-(4-(6-chloroimidazo[1,2-a]pyridin-3-yl)pyrimidin-2-yl)-2-methyl-6-(5-methyl-1H-pyrazol-4-yl)morpholine]

— patent US10793563B2, “GCN2 inhibitors and uses thereof” (Merck Patent GmbH, priority 2018, dated 2020)
